Calls of active or inactive are those of the source. The rule behind the calls is not given here.
Assays:
[1] = Hemolytic activity in mouse red blood cells assessed as hemolysis rate at 512 ug/ml incubated for 1 hrs by microplate reader analysis relative to control; type: toxicity, cell-based, Erythrocyte; details: red blood cells (erythrocytes), at 512 µg/mL, read-out: Activity
Pseudomonas aeruginosa [2] = assay: Synergistic antibacterial activity against Pseudomonas aeruginosa PAO1 assessed as inhibition of bacterial growth at 1 to 256 ug/ml incubated for 24 hrs in the presence of Clarithromycin by absorbance based microplate reader analysis; type: functional, organism-based; details: dose 1-256 µg/ml
Pseudomonas aeruginosa [3] = assay: Synergistic antibacterial activity against Pseudomonas aeruginosa 27853 assessed as inhibition of bacterial growth at 64 ug/ml incubated for 24 hrs in the presence of Ciprofloxacin by absorbance based microplate reader analysis; type: functional
Pseudomonas aeruginosa [4] = assay: Synergistic antibacterial activity against Pseudomonas aeruginosa PAO1 assessed as inhibition of bacterial growth at 1 to 256 ug/ml incubated for 24 hrs in the presence of ciprofloxacin by absorbance based microplate reader analysis; type: functional, organism-based; details: dose 1-256 µg/ml
Pseudomonas aeruginosa [5] = assay: Synergistic antibacterial activity against Pseudomonas aeruginosa PAO1 assessed as inhibition of bacterial growth at 1 ug/ml incubated for 24 hrs in the presence of Clarithromycin by absorbance based microplate reader analysis relative to control; type: functional
Bacillus subtilis = assay: Antibacterial activity against penicillin-susceptible Bacillus subtilis ATCC9372 assessed as inhibition of bacterial growth incubated for 20 hrs by CLSI protocol based microdilution method; type: functional
Staphylococcus aureus [6] = assay: Antibacterial activity against methicillin-resistant Staphylococcus aureus ATCC43300 assessed as inhibition of bacterial growth incubated for 20 hrs by CLSI protocol based microdilution method; type: functional
Pseudomonas aeruginosa [7] = assay: Antibacterial activity against wild type Pseudomonas aeruginosa […] CGMCC1.12483 assessed as inhibition of bacterial growth incubated for 20 hrs by CLSI protocol based microdilution method; type: functional
Pseudomonas aeruginosa [8] = assay: Synergistic antibacterial activity against Pseudomonas aeruginosa 27853 assessed as inhibition of bacterial growth incubated for 24 hrs in the presence of Clarithromycin by absorbance based microplate reader analysis; type: functional, organism-based; details: dose 1-256 µg/ml
Pseudomonas aeruginosa [9] = assay: Synergistic antibacterial activity against Pseudomonas aeruginosa 27853 assessed as inhibition of bacterial growth at 256 ug/ml incubated for 24 hrs in the presence of Clarithromycin by absorbance based microplate reader analysis relative to control; type: functional
Pseudomonas aeruginosa [10] = assay: Antibacterial activity against Pseudomonas aeruginosa 27853 assessed as inhibition of bacterial growth at 256 ug/ml measured after 25 hrs by absorbance based assay; type: functional, organism-based; details: dose 256.0 µg/ml
Pseudomonas aeruginosa [11] = assay: Antibacterial activity against penicillin-susceptible Pseudomonas aeruginosa ATCC27853 assessed as inhibition of bacterial growth incubated for 20 hrs by CLSI protocol based microdilution method; type: functional
Pseudomonas aeruginosa [12] = assay: Antibacterial activity against Pseudomonas aeruginosa PAO1 assessed as inhibition of bacterial growth at 256 ug/ml measured after 25 hrs by absorbance based assay; type: functional, organism-based; details: dose 256.0 µg/ml
[13] = Inhibition of quorum sensing system in Pseudomonas aeruginosa PAO1 assessed as inhibition of pyocyanin production at 102.4 ug/ml incubated for 18 hrs by absorbance based assay; details: dose 102.4 µg/ml
Staphylococcus aureus [14] = assay: Antibacterial activity against erthromycin-susceptible Staphylococcus aureus ATCC25923 assessed as inhibition of bacterial growth incubated for 20 hrs by CLSI protocol based microdilution method; type: functional
Pseudomonas aeruginosa [15] = assay: Synergistic antibacterial activity against Pseudomonas aeruginosa 27853 assessed as inhibition of bacterial growth at 1 to 256 ug/ml incubated for 24 hrs in the presence of Ciprofloxacin by absorbance based microplate reader analysis; type: functional, organism-based; details: dose 1-256 µg/ml
Pseudomonas aeruginosa [16] = assay: Inhibition of biofilm formation in Pseudomonas aeruginosa PAO1 at 32 ug/ml incubated for 20 hrs by crystal violet staining based analysis; type: functional
Bacillus pumilus = assay: Antibacterial activity against penicillin-susceptible Bacillus pumilus CMCC63202 assessed as inhibition of bacterial growth incubated for 20 hrs by CLSI protocol based microdilution method; type: functional
[17] = Inhibition of quorum sensing system in Pseudomonas aeruginosa PAO1 assessed as inhibition of rhamnolipid production at 102.4 ug/ml incubated for 24 hrs by absorbance based assay; details: dose 102.4 µg/ml
Pseudomonas aeruginosa [18] = assay: Synergistic antibacterial activity against Pseudomonas aeruginosa PAO1 assessed as inhibition of bacterial growth at 256 ug/ml incubated for 24 hrs in the presence of Clarithromycin by absorbance based microplate reader analysis relative to control; type: functional
Escherichia coli = assay: Antibacterial activity against penicillin-susceptible Escherichia coli ATCC25922 assessed as inhibition of bacterial growth incubated for 20 hrs by CLSI protocol based microdilution method; type: functional
[19] = Inhibition of quorum sensing system in Pseudomonas aeruginosa PAO1 assessed as inhibition of protease activity at 102.4 ug/ml incubated for 24 hrs by absorbance based assay; details: dose 102.4 µg/ml
Pseudomonas aeruginosa [20] = assay: Antibacterial activity against Pseudomonas aeruginosa PAO1 assessed as inhibition of bacterial growth at […] incubated for 24 hrs by absorbance based microplate reader analysis relative to control; type: functional; details: dose 3.2 µg/ml
Pseudomonas aeruginosa [21] = assay: Synergistic antibacterial activity against Pseudomonas aeruginosa PAO1 infected in Kunming mouse model assessed as reduction in viable bacteria at 25 mg/kg, ip pre-infected with bacteria for 1 hrs followed by compound administration and measured after 1 hrs in the presence of ciprofloxacin; type: functional, organism-based
[22] = Inhibition of quorum sensing system in Pseudomonas aeruginosa PAO1 transfected with pqsA-gfp reporter assessed as inhibition of fluorescence expression incubated for >=12 hrs by microplate reader analysis; details: dose 32-256 µg/ml
[23] = Inhibition of quorum sensing system in Pseudomonas aeruginosa PAO1 transfected with rhlA-gfp reporter assessed as inhibition of fluorescence expression incubated for >=12 hrs by microplate reader analysis; details: dose 32-256 µg/ml
[24] = Inhibition of quorum sensing system in Pseudomonas aeruginosa PAO1 transfected with gfp reporter gene assessed as effect on fluorescence expression at 32 to 256 ug/ml incubated for >=12 hrs by microplate reader analysis; details: dose 32-256 µg/ml
[25] = Inhibition of quorum sensing system in Escherichia coli pDSY harboring rhlR gene with rhlA::lacZ translation fusion assessed as inhibition of rhlA translation activation by measuring inhibition of […] activity incubated for 8 hrs by absorbance based analysis; details: dose 32-128 µg/ml
[26] = Inhibition of quorum sensing system in Pseudomonas aeruginosa PAO1 transfected with lasB-gfp reporter assessed as inhibition of fluorescence expression incubated for >=12 hrs by microplate reader analysis; details: dose 32-256 µg/ml
[27] = Inhibition of quorum sensing system in Escherichia coli pEAL08-2 harboring pqsR gene with pqsA::lacZ translation fusion assessed as inhibition of pqsA translation activation by measuring inhibition of […] activity incubated for 8 hrs by absorbance based analysis; details: dose 32-128 µg/ml
Pseudomonas aeruginosa [28] = assay: Synergistic antibacterial activity against Pseudomonas aeruginosa PAO1 assessed as inhibition of bacterial growth at 1 ug/ml incubated for 24 hrs in the presence of ciprofloxacin by absorbance based microplate reader analysis relative to control; type: functional
Pseudomonas aeruginosa [29] = assay: Antibacterial activity against Pseudomonas aeruginosa PAO1 assessed as inhibition of swarming movement at 25.6 to 102.4 ug/ml incubated for 24 hrs; type: functional, organism-based; details: dose 25.6-102.4 µg/ml
Pseudomonas aeruginosa [30] = assay: Synergistic antibacterial activity against Pseudomonas aeruginosa PAO1 assessed as inhibition of bacterial growth at highest concentration incubated for 24 hrs in the presence of ciprofloxacin by absorbance based microplate reader analysis relative to control; type: functional
[31] = Inhibition of quorum sensing system in Escherichia coli MG4/pKDT17 harboring lasR gene with lasB::lacZ translation fusion assessed as inhibition of lasR translation activation by measuring inhibition of […] activity incubated for 8 hrs by absorbance based analysis; details: dose 32-128 µg/ml
Pseudomonas aeruginosa [32] = assay: Inhibition of biofilm formation in Pseudomonas aeruginosa PAO1 assessed as effect on biofilm morphology at 102.4 ug/ml incubated for 24 hrs by scanning electron microscopic analysis; type: functional, organism-based; details: dose 102.4 µg/ml
Pseudomonas aeruginosa [33] = assay: Synergistic antibacterial activity against Pseudomonas aeruginosa 27853 assessed as inhibition of bacterial growth at 256 ug/ml incubated for 24 hrs in the presence of Ciprofloxacin by absorbance based microplate reader analysis relative to control; type: functional
Pseudomonas aeruginosa [34] = assay: Antibacterial activity against Pseudomonas aeruginosa PAO1 assessed as inhibition of bacterial growth at 0.4 ug/ml incubated for 24 hrs by absorbance based microplate reader analysis relative to control; type: functional
Pseudomonas aeruginosa [35] = assay: Antibacterial activity against Pseudomonas aeruginosa 27853 assessed as inhibition of bacterial growth at 0.4 ug/ml incubated for 24 hrs by absorbance based microplate reader analysis relative to control; type: functional

With `C=C1OC(=O)C(CNC(=O)c2ccc(C)cc2)=C1c1ccc(F)cc1` the hemolysis at 1 h, 512 ug/ml [1] was < 2.5%, the Activity (Pseudomonas aeruginosa [2]) was “Active” and the inhibition at 64 µg/mL (Pseudomonas aeruginosa [3]) was 13%. For the same compound, the Activity (Pseudomonas aeruginosa [4]) was “Active”, the inhibition at 1 µg/mL (Pseudomonas aeruginosa [5]) was 54% and the MIC (Bacillus subtilis) was > 512 µg/mL. The MIC (Staphylococcus aureus [6]) was > 512 µg/mL, the MIC (Pseudomonas aeruginosa [7]) was > 512 µg/mL and the Activity (Pseudomonas aeruginosa [8]) was “Dose-Dependent Effect”. For the same compound, the inhibition at 256 µg/mL (Pseudomonas aeruginosa [9]) was 45.4%, the Activity (Pseudomonas aeruginosa [10]) was “inactive” and the MIC (Pseudomonas aeruginosa [11]) was > 512 µg/mL. For the same compound, the Activity (Pseudomonas aeruginosa [12]) was “inactive”, the inhibition [13] was 55.5% and the MIC (Staphylococcus aureus [14]) was > 512 µg/mL. For the same compound, the Activity (Pseudomonas aeruginosa [15]) was “Active”, the inhibition (Pseudomonas aeruginosa [16]; dose 32.0 µg/ml) was “Active” and the MIC (Bacillus pumilus) was > 512 µg/mL. For the same compound, the inhibition [17] was “Active”, the inhibition at 256 µg/mL (Pseudomonas aeruginosa [18]) was 44.6% and the MIC (Escherichia coli) was > 512 µg/mL. The inhibition [19] was “Active” and the inhibition at […] (Pseudomonas aeruginosa [20]) was 44.6%.

With `C=C1OC(=O)C(CNC(=O)c2ccc(F)cc2)=C1c1ccc(F)cc1` the hemolysis at 1 h, 512 ug/ml [1] was > 2.5%, the Activity (Pseudomonas aeruginosa [21]) was “Active” and the Activity (Pseudomonas aeruginosa [2]) was “Active”. The inhibition [22] was “Dose-Dependent Effect”, the inhibition [23] was “Dose-Dependent Effect” and the inhibition [24] was “inactive”. For the same compound, the Activity (Pseudomonas aeruginosa [4]) was “Active”, the MIC (Bacillus subtilis) was > 512 µg/mL and the MIC (Staphylococcus aureus [6]) was > 512 µg/mL. The MIC (Pseudomonas aeruginosa [7]) was > 512 µg/mL, the Activity (Pseudomonas aeruginosa [8]) was “Dose-Dependent Effect” and the inhibition at 256 µg/mL (Pseudomonas aeruginosa [9]) was 82.8%. The inhibition [25] was “Dose-Dependent Effect”, the Activity (Pseudomonas aeruginosa [10]) was “inactive” and the inhibition [26] was “Dose-Dependent Effect”. For the same compound, the MIC (Pseudomonas aeruginosa [11]) was > 512 µg/mL, the Activity (Pseudomonas aeruginosa [12]) was “inactive” and the inhibition [27] was “Dose-Dependent Effect”. The inhibition [13] was 31.4%, the MIC (Staphylococcus aureus [14]) was > 512 µg/mL and the Activity (Pseudomonas aeruginosa [15]) was “Active”. For the same compound, the inhibition at 1 µg/mL (Pseudomonas aeruginosa [28]) was 60.5%, the Activity (Pseudomonas aeruginosa [29]) was “Active” and the inhibition at 32 µg/mL (Pseudomonas aeruginosa [16]) was 50.7%. The MIC (Bacillus pumilus) was > 512 µg/mL, the “inhibition (INH)” value (Pseudomonas aeruginosa [30]) was 90.53% and the inhibition [17] was “Active”. For the same compound, the inhibition [31] was “Dose-Dependent Effect”, the inhibition (Pseudomonas aeruginosa [32]) was “Active” and the MIC (Escherichia coli) was > 512 µg/mL. The inhibition [19] was 30.6% and the inhibition at 256 µg/mL (Pseudomonas aeruginosa [33]) was 77.2%.

Compound `O=C(O)c1cn(C2CC2)c2cc(N3CCNCC3)c(F)cc2c1=O` [CIPROFLOXACIN] has an inhibition at 0.4 µg/mL (Pseudomonas aeruginosa [34]) of 42.1% and an inhibition at 0.4 µg/mL (Pseudomonas aeruginosa [35]) of 26.2%.
